According to US12191014B1, “Personal analysis and chronotherapy” (CERNER INNOVATION, INC., priority 2013, dated 2025):

What was measured:
[1] = system: blood pressure of patients; details: cited from earlier work; for effect on asleep versus awake SBP and DBP means: ACEI, evening or bedtime administration; for therapeutic effect on sleeping BP: ARB, bedtime in comparison with morning ingestion schedule
[2] = system: hypertensive subjects; test: 32-day losartan administration-time study with NIBP/SBP time series and spectral analysis; assay type: in vivo, human
Protocol: Because dipping status is determined by (a) sleep BP and (b) awake BP, it might be expected that the 2 determinants would have equal weight. […] Although there is evidence that an extreme dipping pattern may lead to nocturnal cerebral ischemia, there is also evidence that nondippers are at greater risk for cardiovascular morbidity than dippers, both for cardiovascular events and for progression of kidney disease. […] This is exactly what we have observed with losartan.
To illustrate the advantages of the present technology, a, a series of alternate schedules for administering a single, strong 100 mg oral dose of the rapidly-absorbed angiotensin receptor blocker, losartan, were explored (03:00; 09:00; 21:00; etc.). Subjects […] informed consent according to applicable U.S. law and regulations. Baseline drug-holiday NIBP measurements were collected in each subject for a period of 32 days. Subjects who had other comorbid health conditions besides hypertension were excluded, as were subjects who required two or more antihypertensive medications for blood pressure control.
Under the experimental protocol, a two-week wash-out interval was interposed between a 32-day treatment period with one administration time and the next 32-day period. Subjects were randomized as to which administration time sequence.
All of the 32-day timing regimens were monitored so as to establish administration timing compliance with a timing precision of +15 min. […]
Records were randomly selected from a patient health records data warehouse, which is derived from Cerner electronic health record (EHR) from 100% of episodes of care that are incident upon the participating health institutions. […] The SBP data is cast into the form of a time series, and analyzed the sequences using the open-source R statistical packages psd, seewave, and tuneR. […]

[3] = system: blood pressure patient; test: Example 1: evaluation pack trial of Losartan formulations against diagnostic targets; assay type: in vivo, human
Protocol: Example 1: A blood pressure patient is currently medicated, but appears to be medicated at an insufficient level. For example, the patient has been taking 50 mg of Losartan at various ingestion times, but has experienced some severe headaches and nose bleeds in the afternoon particularly on stressful days.
In an embodiment, the evaluation package includes four different formulations labeled A, B, 3A, and 5A arranged in separable columns of constant medication 1027, 1028, 1025, 1030, and 1010, that may be separated by manually tearing package 1000 along perforated divisions 1096, 1097, 1098, and 1099. In an embodiment, dose pack 1000 is formed by selectively applying an adhesive to a foil backing layer to adhere the foil to transparent plastic front layer 1012 containing pills such as 1013 as shown in FIG. 10. In an embodiment, a label such as “5A” is provided on the dose itself such as label 1015 on pill 1013 as viewable in dose display container 1014, and/or on the packaging in label 1011 of constant formulation dosepack represented in column 1010. Advantageously, a patient tears along a perforation 1096 while taking dose A, and only need carry a single column such as 1027 while taking an “A” formulation dose. Similarly columns 1026, 1025, 1030 and 1010 are separable by perforations 1096, 1097, 1098 and 1099. An embodiment of a constant formulation dose pack has 32 cycles of dosage. An embodiment of a constant formulation dose pack has 10 cycles of dosage.
In an embodiment, the “A” formulation corresponds to a pulsatile application of 100 mg Losartan that applies medication nominally 20 minutes after ingestion, the “3A” formulation delays application of 100 mg of Losartan to 3 hours after ingestion. The “5A” formulation delays application of 100 mg of Losartan to 5 hours after ingestion. The “B” formulation is 5 mg amlodipine besylate that applies medication approximately 5 hours after ingestion. In an embodiment the dose sequence spectrum is chosen to center the medication application around a typical peak level. For example, with blood pressure medicine application, a peak plasma level between midnight and 6 a.m. would provide dosage delays centered about 3 a.m. for a patient who is thought to be a normal dipper. An embodiment puts at least one dosage application time in a period of normal peak, for example, between midnight and 6 a.m. for blood pressure application. In an embodiment, different dose levels are provided, such as a trial with 50 mg Losartan, or 150 mg Losartan for the same application time.
Turning now to FIG. 2, there is depicted in 100 a method for a computer to execute a method of personal health evaluation. At 205, a patient manager such as 140 is configured through a clinician evaluation template to present results to the patient on patient interface 141 after the clinician has released the information to the patient for viewing, explanation. In an embodiment a template includes a monitor identifier, a patient identifier, such as social security number and/or full name and zip code, and an identification code for the dose pack such as product ID code “AB27YAM” shown in identifier 1050. In an embodiment the template includes a set of patient instructions to guide patient through the use of the monitor device. In an embodiment, the patient is instructed to wear the monitor continuously with unmonitored stretches of no greater than a half an hour. […] In an embodiment, the template includes information such as gender (male or female), weight, height, body mass index, other conditions, other mediations, patient history, patient age, a diagnostic target, a clinical input to be monitored, a period statistic to be measured, a period variability measure to be evaluated, a variation, etc. […]

In the case of `CCOC(=O)[C@H](CCc1ccccc1)N[C@@H](C)C(=O)N1CCC[C@H]1C(=O)O` [enalapril], the “effect on asleep versus awake SBP and DBP means” value [1] is given as “more marked effect on the asleep than awake”.

In the case of `CCCCc1nc(Cl)c(CO)n1Cc1ccc(-c2ccccc2-c2nn[nH]n2)cc1` [losartan], the “reduction in average blood pressure” value ([2]; 100 mg oral dose, all dosing schedules (03:00; 09:00; 21:00), 32-day treatment periods) is reported as “reduction in average blood pressure”, the “phase-slips between circadian BP and drug administration” value ([2]; 100 mg, 21:00 administration time) is reported as “occasionally detected” and the “normalization of dipping pattern” value ([2]; administration such that peak plasma levels occur prior to midnight or prior to 06:00) is reported as “can normalize extreme dippers, non-dippers, and risers and convert them to normal dippers”. For the same molecule, the dipping pattern ([3]; 100 mg at 21:00) was “achieved a normal dipping pattern”, the “entropy relative to untreated regimen” value ([3]; 100 mg at 21:00) was “greatly improved entropy” and the entropy versus target ([3]; 100 mg at 21:00) was “acceptable entropy”. The “max SBP versus target” value ([3]; 100 mg at 21:00) was “unacceptable max SBP”, the “range of SBP versus target” value ([3]; 100 mg at 21:00) was “unacceptable range” and the rolloff ([3]; 100 mg at 21:00) was “acceptable rolloff improvement”. The significance versus target ([3]; 100 mg at 21:00) was “acceptable significance”, the stability of rhythm ([3]; 100 mg at 21:00) was “improved stability of rhythm” and the desired targets met ([3]; 100 mg at 21:00, compared with untreated regimen) was 5 of 7. For the same molecule, the “therapeutic effect on sleeping BP” value [1] was “greater therapeutic effect on sleeping BP”.

In the case of `CCOC(=O)[C@H](CCc1ccccc1)N[C@@H](C)C(=O)N1[C@H](C(=O)O)C[C@H]2CCCC[C@@H]21` [trandolapril], the “effect on asleep versus awake SBP and DBP means” value [1] is given as “more marked effect on the asleep than awake”.

For `C[C@H](CS)C(=O)N1CCC[C@H]1C(=O)O` [captopril], the “effect on asleep versus awake SBP and DBP means” value [1] is listed as “more marked effect on the asleep than awake”.

In the case of `CCOC(=O)[C@H](CCc1ccccc1)N[C@@H](C)C(=O)N1[C@H](C(=O)O)C[C@@H]2CCC[C@@H]21` [ramipril], the “effect on asleep versus awake SBP and DBP means” value [1] is given as “more marked effect on the asleep than awake”.

In the case of `CCCc1nc2c(C)cc(-c3nc4ccccc4n3C)cc2n1Cc1ccc(-c2ccccc2C(=O)O)cc1` [telmisartan], the “therapeutic effect on sleeping BP” value [1] is listed as “greater therapeutic effect on sleeping BP”.

In the case of `CCOC(=O)[C@H](CCc1ccccc1)N[C@H]1CCc2ccccc2N(CC(=O)O)C1=O` [benazepril], the “effect on asleep versus awake SBP and DBP means” value [1] is given as “more marked effect on the asleep than awake”.

In the case of `CCCCC(=O)N(Cc1ccc(-c2ccccc2-c2nnn[nH]2)cc1)[C@H](C(=O)O)C(C)C` [valsartan], the “therapeutic effect on sleeping BP” value [1] is listed as “greater therapeutic effect on sleeping BP”.

For `CCOC(=O)[C@H](CCc1ccccc1)N[C@@H](C)C(=O)N1Cc2ccccc2C[C@H]1C(=O)O` [quinapril], the “effect on asleep versus awake SBP and DBP means” value [1] is listed as “more marked effect on the asleep than awake”.

In the case of `C[C@H](CSC(=O)c1ccccc1)C(=O)N1C[C@@H](Sc2ccccc2)C[C@H]1C(=O)O` [zofenopril], the “effect on asleep versus awake SBP and DBP means” value [1] is listed as “more marked effect on the asleep than awake”.

For `CCCCC1=NC2(CCCC2)C(=O)N1Cc1ccc(-c2ccccc2-c2nnn[nH]2)cc1` [irbesartan], the “therapeutic effect on sleeping BP” value [1] is given as “greater therapeutic effect on sleeping BP”.

For `CCC[C@H](N[C@@H](C)C(=O)N1[C@H](C(=O)O)C[C@@H]2CCCC[C@@H]21)C(=O)OCC` [perindopril], the “effect on asleep versus awake SBP and DBP means” value [1] is given as “more marked effect on the asleep than awake”.

In the case of `NCCCC[C@H](N[C@@H](CCc1ccccc1)C(=O)O)C(=O)N1CCC[C@H]1C(=O)O` [lisinopril], the “effect on asleep versus awake SBP and DBP means” value [1] is given as “more marked effect on the asleep than awake”.

In the case of `CCOC(=O)[C@H](CCc1ccccc1)N[C@@H](C)C(=O)N1CC2(C[C@H]1C(=O)O)SCCS2` [spirapril], the “effect on asleep versus awake SBP and DBP means” value [1] is given as “more marked effect on the asleep than awake”.
